Assay results: patent US20050063999A1, “Use of at least one (dihydro)jasmonic acid derivative as a desquamating agent” (priority 2003, published 2005)

Tested on: stratum corneum
Assay: Desquamating power: count of corneocytes released from isolated stratum corneum discs after incubation with the test compound
Format: cell-based
Details: 1 % by weight compound in PBS buffer + 0.1% Triton X100, pH 7.4, 37° C., 24 hours, with stirring
Experimental: The desquamating power of the compound prepared in Example 1 above was studied. This test comprised counting the corneocytes released after incubating batches of stratum corneum, isolated by trypsin/heat from plastic surgery operations, in the presence of the test compound.
Discs of stratum corneum 4 mm in diameter were cut out with a punch and placed at the bottom of a 96-well plate. Two different stratum corneum samples were used.
A solution was prepared comprising 1 % by weight of compound of Example 1 in a PBS buffer supplemented at 0.1% with Triton X100. The pH of the solution was readjusted to 7.4.
50 microliters of test solution or of control solution (PBS buffer supplemented at 0.1% with Triton X100) were added to each well. The experiment was repeated three times. The mixture was incubated at 37° C., with stirring, for 24 hours.
10 microliters of solution were then collected and placed in a Mallassez cell. The corneocytes released were counted under a microscope.
The following results were obtained, which express the mean, for the three trials, of the number of corneocytes released per microliter. The corneocyte fragments were not counted.

Structure (SMILES): CCCCCC1C(CC(=O)O)CCC1OC (racemic) [Compound of Example 1]
- number of corneocytes released per microliter, mean (3 trials per sample), Sample No. 1 (stratum corneum Sample No. 1, control 6 ± 1): 17 ± 6 per microliter
- number of corneocytes released per microliter, mean (3 trials per sample), Sample No. 2 (stratum corneum Sample No. 2, control 6 ± 2): 16 ± 6 per microliter
